Test results reported in PMC5986738, “Thiazole Amides, A Novel Class of Algaecides against Freshwater Harmful Algae” (Scientific Reports, 2018).
Values after ≈ are worked out from the molar mass of the structure shown.

Legend:
[1] = test system: dinoflagellates and raphidophytes; parameters: method as in doi:10.1016/j.tetlet.2003.08.115, PMID 17988095; details: cited from earlier work
[2] = test system: Ceratophyllum demersum L; assay: Herbicidal activity against aquatic plant C. demersum L; assay type: in vivo; details: n.a.: no activity
Protocol: (§1) Toxicity of this class of thiazole amides towards non-target organisms, such as higher plants and fishes, was evaluated preliminarily using compound (10) as a representative sample. Herbicidal activity of compound (10) against two terrestrial plants, Brassica campestris and Echinochloa crusgalli, and two aquatic plants, Ceratophyllum demersum L and Hydrilla verticillata, was evaluated at a concentration of 500 mg/L using a previously reported method. In addition, toxicity of compound (10) toward fish Barchydanio rerio var was also tested at the concentrations of 200 mg/L and 100 mg/L, respectively.

[3] = test system: Barchydanio rerio var; assay: Toxicity toward fish; assay type: in vivo; details: for Survival ratio in 7 days: fish
Protocol: as §1

[4] = test system: C. pyrenoidosa; assay: Algicidal activity (growth inhibition, microplate, absorbance 650 nm) against C. pyrenoidosa; assay type: cell-based, Chlorella pyrenoidosa; details: Auxenochlorella pyrenoidosa; 96-hour IC50, mean ± SD; read-out: IC50 value C. pyrenoidosa
Protocol: (§2) According to the method established by Schrader et al.[42], algicidal activity of alkaloid (1) and its amide analogues (7–32), as well as their hydrochloric salts (7S–27S), was evaluated against three typical […] algae, S. obliqnus, M. aeruginosa, and C. Pyrenoidosa at different concentrations. After three algae species were inoculated, the variation of algae density over 7 days were recorded continuously. […] The wavelength at 650 nm was determined as ideal incident wavelength for the measurement of algae density. Three […] algae S. obliqnus, M. aeruginosa, and C. pyrenoidosa were offered by Freshwater algae culture collection of the institute of Hydrobiology (FACHB-collection). Each culture for three species was maintained separately in continuous, steady-state growth microplates, which were placed in a growth chamber held at 28 ± 1 °C and illuminated continuously under fluorescent lights at a photon flux density of […]. Absorbance values of each wells were measured by a Packard model Spectra Count microplate photometer.
(§3) Alkaloid (1) and its analogues (7–32), as well as their hydrochloric salts (7S–27S), were dissolved separately in DMSO to provide stock solution concentrations. Initially, each stock solution was aseptically pipetted into the bottom of separate wells (20 μL per well) in a 96-well microplate and the final test concentrations for each sample were 0, 0.78, 1.56, 3.12, 6.25, 12.5, and 25 μg/mL. Wells of control samples contained only unialgal culture. The solution of CuSO4 and Diuron at the same concentration were chose as the reference sample. Each experiment was performed at least three times. Through measuring the area values under the individual growth curves, the inhibitory rate (%) for the individual tested concentration was calculated according to the following equation (1):1 Ii=(Ac−Ai)/[…]×100% • Ii: inhibitory rate of biomass growth by toxicant concentration i (%) • Ac: average area under the growth curve by control sample • Ai: average area under the growth curve by test concentration i
(§4) Mean values of 96-hour IC50 were determined for each group of plates, and standard deviation were calculated and reported as the mean ± SD.
(§5) The IC50 values of all compounds against three freshwater algae species were calculated using SPSS v19.0, and the algicidal activities of alkaloid (1) and its amide analogues (7–32), as well as the corresponding hydrochloric salts (7S–27S) are listed in Table 1 and 2, respectively.

[5] = test system: Hydrilla verticillata; assay: Herbicidal activity against aquatic plant H. verticillata; assay type: in vivo; details: n.a.: no activity
Protocol: as §1

[6] = test system: Brassica campestris; assay: Herbicidal activity against terrestrial plant B. campestris; assay type: in vivo; details: n.a.: no activity
Protocol: as §1

[7] = test system: Echinochloa crusgalli; assay: Herbicidal activity against terrestrial plant E. crusgalli; assay type: in vivo; details: n.a.: no activity
Protocol: as §1

[8] = test system: M. aeruginosa; assay: Algicidal activity (growth inhibition, microplate, absorbance 650 nm) against M. aeruginosa; assay type: cell-based; details: for growth inhibitory ratio: 3.13 μg/mL; for IC50: Microcystis aeruginosa, 96-hour IC50, mean ± SD, read-out: IC50 value M. aeruginosa
Protocol: as §2, §3, §4, §5
Currently, M. aeruginosa appears to be the most harmful algae existing in the freshwater bodies in the developing countries. To investigate growth inhibitory potential of this class of thiazole amides on M. aeruginosa, thiazole amide (10) and its hydrochloric acid salt (10S) were subject to further survey for the optimal inhibition time and concentration (Figs 3 and 4). […] The variation of growth inhibitory ratios of compounds (10) and (10S) against M. aeruginosa at the lowest complete inhibition concentration is illustrated in Fig. 4. As observed, for administration of thiazole amide (10), the growth inhibitory ratios after 96 and 120 hours increase gradually to 79% and 92%, respectively. Under the same experimental conditions, growth inhibitory ratios for the salt (10S) are 82% and 88%, respectively.

[9] = test system: S. obliqnus; assay: Algicidal activity (growth inhibition, microplate, absorbance 650 nm) against S. obliqnus; assay type: cell-based; details: for IC50: 96 h, 96-hour IC50, mean ± SD, read-out: IC50 value S. obliqnus
Protocol: as §2, §3, §4, §5

[10] = test system: Kirchneriella contorta; parameters: method as in PMID 16468755, PMID 16378379; details: cited from earlier work
[11] = parameters: method as in PMID 16468755, PMID 16378379; details: Synechococcus obliqnus; cited from earlier work
[12] = test system: Microcystis aeruginosa; parameters: method as in PMID 16468755, PMID 16378379; details: cited from earlier work

| melting point [°C] | Structure (SMILES) | IC50 [4] [µg/mL] | IC50 [8] [µg/mL] | IC50 [9] [µg/mL] | also measured |
| --- | --- | --- | --- | --- | --- |
| – | CC(=O)c1nc(C(=O)NCCc2c[nH]c3ccccc23)cs1 [bacillamide A] | – | – | – | antibiotic activity (in words) [1]: potent antibiotic activity |
| – | C[C@H](N)c1nc(C(=O)Nc2ccc(Br)cc2)cs1 [compound 10] | 1.52 ± 0.05 (≈ 4.66 µM) | 1.51 ± 0.11 (≈ 4.63 µM) | – | Herbicidal activity (500 mg/L) C. demersum L. [2]: none-toxic; toxicity toward fish (in words) ([3]; 100 and 200 mg/L): safe; Survival ratio in 7 days ([3]; dosage 100 mg/L): 100%; Survival ratio in 7 days ([3]; dosage 200 mg/L): 100%; Herbicidal activity (500 mg/L) H. verticillata [5]: none-toxic; Herbicidal activity (500 mg/L) B. campestris [6]: none-toxic; Herbicidal activity (500 mg/L) E. crusalli [7]: none-toxic; growth inhibitory ratio ([8]; after 96 hours): 79%; growth inhibitory ratio ([8]; after 120 hours): 92%; algicidal activity, times higher than CuSO4 and Diuron ([9]; S. obliqnus, from IC50 values): more than 10 times |
| 135 to 137 | Cc1cccc(NC(=O)c2csc([C@H](C)N)n2)c1 [compound 16] | 7.18 ± 0.05 (≈ 27.5 µM) | 24.2 ± 3.12 (≈ 92.4 µM) | 2.86 ± 0.14 (≈ 10.9 µM) | – |
| 82 to 84 | COc1ccccc1NC(=O)c1csc([C@H](C)N)n1 [compound 22] | 2.19 ± 0.71 (≈ 7.9 µM) | 3.12 ± 0.56 (≈ 11.2 µM) | < 1 | – |
| 139 to 141 | CC(=O)c1ccc(NC(=O)c2csc([C@H](C)N)n2)cc1 [compound 27] | 2.84 ± 0.23 (≈ 9.81 µM) | 2.33 ± 0.32 (≈ 8.05 µM) | 4.73 ± 0.54 (≈ 16.3 µM) | – |
| 109 to 111 | CCCCNC(=O)c1csc([C@H](C)N)n1 [compound 30] | 4.65 ± 0.25 (≈ 20.5 µM) | 5.47 ± 0.41 (≈ 24.1 µM) | 5.23 ± 0.36 (≈ 23 µM) | – |
| 64 to 67 | C[C@H](N)c1nc(C(=O)NCc2ccccc2)cs1 [compound 32] | 4.16 ± 0.88 (≈ 15.9 µM) | 9.48 ± 1.08 (≈ 36.3 µM) | 100.2 ± 0.34 (≈ 383 µM) | – |
| – | C[n+]1ccc2c(c1)[nH]c1ccc(Cl)cc12 [nostocarboline] | – | – | – | IC50 [10]: 29.1 µM; IC50 [11]: 5.8 µM; IC50 [12]: 2.1 µM |
